Laboratory results reported in ChEMBL document CHEMBL1201862, “PubChem BioAssay data set” (2004).
Active and inactive are the calls of the source.

Key:
[1] = molecular target: T1, Heat shock factor protein 1 (Mus musculus, UniProt P38532); experiment: inhibition of MG132-induced HSE-luciferase signal, confirmation, cell-based, NIH3T3, luminescence, dose retest (AID 2382); assay type: functional;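 note: NIH3T3 fibroblasts with HSF1-driven luciferase reporter stressed by proteasome inhibitor MG132; luminescence from HSF1-driven luciferase expression after 8 hours of MG132 stress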
T1 sequence (P38532 whole entry): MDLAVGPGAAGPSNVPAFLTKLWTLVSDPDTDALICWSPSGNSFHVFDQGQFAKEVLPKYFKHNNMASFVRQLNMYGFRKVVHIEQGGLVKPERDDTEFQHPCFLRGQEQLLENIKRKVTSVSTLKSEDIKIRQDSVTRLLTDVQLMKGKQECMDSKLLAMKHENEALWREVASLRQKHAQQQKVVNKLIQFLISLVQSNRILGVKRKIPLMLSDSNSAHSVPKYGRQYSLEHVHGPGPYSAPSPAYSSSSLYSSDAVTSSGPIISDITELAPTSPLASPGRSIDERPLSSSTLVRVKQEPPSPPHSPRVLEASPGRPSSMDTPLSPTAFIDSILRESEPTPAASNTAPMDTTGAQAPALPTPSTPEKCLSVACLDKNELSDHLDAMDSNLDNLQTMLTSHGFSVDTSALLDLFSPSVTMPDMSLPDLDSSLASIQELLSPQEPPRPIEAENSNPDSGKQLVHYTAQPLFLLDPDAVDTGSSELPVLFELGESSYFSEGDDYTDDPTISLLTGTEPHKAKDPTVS

[2] = molecular target: Photoreceptor-specific nuclear receptor (Homo sapiens, UniProt Q9Y5X4); assay type: functional, cell-based;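 note: CHO-S cells with Gal4-NCOR and VP16-NR2E3 two-hybrid luciferase reporter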
[3] = HEp-2 cell cytotoxicity, dose response, cytotoxicity control for RSV inhibitor project, HTS (AID 2410); assay type: functional; details: human respiratory syncytial virus
[4] = inhibitors of HIV Env-driven cell fusion, dose response, cherry-pick (AID 652057); assay type: functional, cell-based
[5] = ZM109 Env clade C HIV-1 fusion inhibitors, dose response, HeLa effector, CEM target cells, luciferase, cherry-pick (AID 652058); assay type: functional, cell-based
[6] = off-target signal loss in HeLa-CEM21 co-culture – HeLa F-luc CTL cells, cherry-picked, counter-screen for HIV-1 Env fusion inhibitor project, dose response (AID 652040); assay type: functional, cell-based;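 note: potency for signal decrease marking cytotoxic or nonspecific inhibition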
[7] = inhibitors of clade B AD8 Env fusion, dose response, cell-based, cherry-pick (AID 652062); assay type: functional;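 note: luciferase signal from cell-cell fusion driven by HIV-1 clade B AD8 Env; potency is for inhibitors of fusion seen as a drop in luminescence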
[8] = cells
[9] = molecular target: T2, Low molecular weight phosphotyrosine protein phosphatase (Homo sapiens, UniProt P24666); assay type: functional; details: read-out: IC50_Mean
T2 sequence (P24666 whole entry): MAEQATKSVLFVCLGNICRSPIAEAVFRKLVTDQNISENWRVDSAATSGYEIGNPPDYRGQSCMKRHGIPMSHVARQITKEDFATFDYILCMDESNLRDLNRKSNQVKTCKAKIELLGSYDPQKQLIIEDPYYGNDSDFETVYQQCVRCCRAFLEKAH

[10] = molecular target: T2, Low molecular weight phosphotyrosine protein phosphatase; assay type: functional; details: read-out: IC50_Mean; remark: listed apart in the source
[11] = inhibitors of firefly luciferase expression or activity, dose response, H4 neuroglioma cells, luminescence (AID 1990); assay type: functional, cell-based
[12] = luciferase reporter signal reduction – luminescence, H4-C neuroglioblastoma cells, dose response (AID 2458); assay type: functional, cell-based;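 note: H4 neuroglioblastoma cells stably carrying a luciferase reporter gene fusion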
[13] = tested on: BJ; experiment: cytotoxicity toward BJ-TERT fibroblasts, dose response, cell-based, RAS-independent, luminescence (AID 1933); assay type: functional; details: Homo sapiens
[14] = cells; assay type: functional, cell-based
[15] = Luminescence Cell-Based Dose Response HTS to Identify Inhibitors of 5'UTR Stem-Loop Driven Prion Protein mRNA Translation in H4 Neuroglioblastoma Cells. [Related pubchem assays: 1827 (Project Summary), 1813 (Primary HTS)]; assay type: functional
[16] = inhibitors of SNCA 5'UTR-driven reporter translation, confirmation, H4 neuroglioma cells, luminescence (AID 1988); assay type: functional, cell-based
[17] = tested on: BJ; experiment: cells; assay type: functional, cell-based; details: Homo sapiens
[18] = tested on: BJ; experiment: cytotoxicity toward BJ-TERT-LT-ST fibroblasts, dose response, cell-based, RAS-independent, luminescence (AID 1935); assay type: functional; details: Homo sapiens;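 note: BJ fibroblasts immortalized with TERT plus LT and ST oncogenes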
[19] = cytotoxicity toward DRD oncogenic fibroblasts, dose response, cell-based, non-viral oncogenic, luminescence (AID 1934); assay type: functional; details: Homo sapiens
[20] = inhibitors of SNCA 5'UTR-driven translation, confirmation, luminescence, H4 neuroglioblastoma cells, dose confirmation (AID 2454); assay type: functional, cell-based;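 note: H4 neuroglioblastoma cells carrying an alpha-synuclein 5'UTR luciferase reporter; potency for inhibition of the luciferase signal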
[21] = cells; assay type: functional, cell-based; remark: listed apart in the source
[22] = molecular target: T3, Nuclear receptor subfamily 0 group B member 1 (Homo sapiens, UniProt P51843); assay type: functional, cell-based;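 note: HEK293T cells transfected with SF-1 and DAX-1 plus StAR promoter luciferase reporter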
T3 sequence (P51843 whole entry): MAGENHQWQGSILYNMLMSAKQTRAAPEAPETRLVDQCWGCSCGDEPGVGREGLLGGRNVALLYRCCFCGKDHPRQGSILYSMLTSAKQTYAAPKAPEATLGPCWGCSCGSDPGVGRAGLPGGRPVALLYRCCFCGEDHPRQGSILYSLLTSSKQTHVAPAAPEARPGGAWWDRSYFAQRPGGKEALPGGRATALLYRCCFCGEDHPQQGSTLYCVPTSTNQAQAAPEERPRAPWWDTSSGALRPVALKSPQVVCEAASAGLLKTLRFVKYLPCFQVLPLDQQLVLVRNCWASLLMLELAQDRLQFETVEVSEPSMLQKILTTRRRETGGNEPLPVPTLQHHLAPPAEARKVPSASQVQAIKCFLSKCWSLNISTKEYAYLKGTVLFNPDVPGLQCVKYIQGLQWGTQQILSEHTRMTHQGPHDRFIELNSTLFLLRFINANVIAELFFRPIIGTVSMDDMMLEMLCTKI

[23] = molecular target: T4, Protein skinhead-1 (Caenorhabditis elegans, UniProt P34707); assay type: functional
T4 sequence (P34707 whole entry): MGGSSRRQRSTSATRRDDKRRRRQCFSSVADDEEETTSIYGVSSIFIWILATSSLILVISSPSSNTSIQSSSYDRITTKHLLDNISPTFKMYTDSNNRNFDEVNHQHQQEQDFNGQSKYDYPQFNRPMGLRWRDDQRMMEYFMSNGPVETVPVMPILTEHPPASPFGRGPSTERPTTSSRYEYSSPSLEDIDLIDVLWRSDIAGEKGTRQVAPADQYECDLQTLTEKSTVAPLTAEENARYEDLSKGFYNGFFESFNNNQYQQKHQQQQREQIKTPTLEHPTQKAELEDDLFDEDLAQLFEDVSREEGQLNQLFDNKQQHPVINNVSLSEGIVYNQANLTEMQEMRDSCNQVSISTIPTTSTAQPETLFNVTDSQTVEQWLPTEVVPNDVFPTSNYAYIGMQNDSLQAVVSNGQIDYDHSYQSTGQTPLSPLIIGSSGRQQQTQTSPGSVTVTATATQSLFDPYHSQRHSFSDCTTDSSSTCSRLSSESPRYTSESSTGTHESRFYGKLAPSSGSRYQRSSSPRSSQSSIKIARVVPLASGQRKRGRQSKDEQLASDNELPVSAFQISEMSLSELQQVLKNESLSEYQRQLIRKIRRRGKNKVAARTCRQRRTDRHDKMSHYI

[24] = miR-122 activators in hepatoma reporter cells, dose response, cell-based, Huh7 psiCHECK-miR122, Renilla luciferase, cherry-picked (AID 651956); assay type: functional;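 note: huh7 hepatoma cells stably carrying a psiCHECK-2 miR-122 sensor plasmid; renilla luciferase signal reporting endogenous miR-122 activity after 48 h compound exposure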
[25] = molecular target: T5, Hepatocyte nuclear factor 4-alpha (Homo sapiens, UniProt P41235); assay type: functional, cell-based;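 note: biochemical luminescence-based dose-response counterscreen measuring inhibition of HNF4 dimerization, run alongside a screen for blockers of ABHD5–perilipin-5 interaction; split luciferase complementation of HNF4 fusion proteins in cell lysate measuring dimerization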
T5 sequence (P41235 whole entry): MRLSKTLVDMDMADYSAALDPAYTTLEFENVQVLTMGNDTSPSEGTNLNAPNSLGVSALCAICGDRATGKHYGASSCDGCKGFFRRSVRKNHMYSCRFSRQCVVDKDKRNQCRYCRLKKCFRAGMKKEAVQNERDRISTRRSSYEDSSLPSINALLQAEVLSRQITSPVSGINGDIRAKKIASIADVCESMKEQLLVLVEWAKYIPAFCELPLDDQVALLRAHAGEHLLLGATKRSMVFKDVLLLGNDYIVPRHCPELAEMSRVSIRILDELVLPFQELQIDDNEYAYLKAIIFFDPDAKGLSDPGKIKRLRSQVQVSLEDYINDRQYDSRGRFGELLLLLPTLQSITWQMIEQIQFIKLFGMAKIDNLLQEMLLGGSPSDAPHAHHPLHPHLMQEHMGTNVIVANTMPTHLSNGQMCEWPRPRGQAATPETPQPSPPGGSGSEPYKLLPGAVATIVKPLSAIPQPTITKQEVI

[26] = growth suppression of PTEN-null colon cells, dose response, cell-based, HCT116 PTEN knockout (AID 1047); assay type: functional;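 note: HCT116 colon tumor cells with PTEN knocked out; cells exposed to compound for 60 hours before readout; potency for loss of cell viability measured by luminescence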
[27] = growth suppression of beta-catenin-knockout colon cells, dose response, cell-based, HCT116, human colon tumor (AID 1045); assay type: functional;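 note: HCT116 colon tumor cells with beta catenin knocked out; cells exposed to compound for 60 hours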
[28] = Luminescence Cell-Based Dose Retest to Confirm Inhibitors of Cancer Stem Cells. [Related pubchem assays (depositor defined):AID2717, AID2721]; assay type: functional; details: Homo sapiens
[29] = HeLa cell cytotoxicity, dose response, cytotoxicity control for MgcRacGAP inhibitor project (AID 624300); assay type: functional
[30] = molecular target: T6, DNA repair protein RAD52 homolog (Homo sapiens, UniProt P43351); assay type: functional, biochemical
T6 sequence (P43351 whole entry): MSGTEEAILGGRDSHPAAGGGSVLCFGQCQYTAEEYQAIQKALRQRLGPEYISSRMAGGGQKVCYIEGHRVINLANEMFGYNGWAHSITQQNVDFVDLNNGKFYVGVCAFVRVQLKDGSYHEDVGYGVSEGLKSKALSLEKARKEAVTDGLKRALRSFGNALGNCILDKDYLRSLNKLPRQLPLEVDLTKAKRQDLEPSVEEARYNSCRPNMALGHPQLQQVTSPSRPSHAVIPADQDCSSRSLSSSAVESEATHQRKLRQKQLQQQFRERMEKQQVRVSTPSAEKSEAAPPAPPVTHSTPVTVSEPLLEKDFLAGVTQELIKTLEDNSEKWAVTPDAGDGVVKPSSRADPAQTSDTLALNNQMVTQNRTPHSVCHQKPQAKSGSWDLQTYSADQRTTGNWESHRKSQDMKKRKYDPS

[31] = molecular target: Paired box protein Pax-8 (Homo sapiens, UniProt Q06710); experiment: inhibitors of PAX8-driven TPO luciferase reporter, dose response, RMG-I cells, cherry-pick (AID 687027); assay type: functional, cell-based;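 note: luciferase reporter driven by Pax8 target thyroperoxidase promoter measured by SteadyGlo luminescence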
[32] = non-specific cell cytotoxicity, dose response, cytotoxicity control for PAX8 inhibitor project, plate reader, dry powder samples (AID 743021); assay type: functional, cell-based

Chain of Photoreceptor-specific nuclear receptor (Q9Y5X4 whole entry, the tested form may be a part): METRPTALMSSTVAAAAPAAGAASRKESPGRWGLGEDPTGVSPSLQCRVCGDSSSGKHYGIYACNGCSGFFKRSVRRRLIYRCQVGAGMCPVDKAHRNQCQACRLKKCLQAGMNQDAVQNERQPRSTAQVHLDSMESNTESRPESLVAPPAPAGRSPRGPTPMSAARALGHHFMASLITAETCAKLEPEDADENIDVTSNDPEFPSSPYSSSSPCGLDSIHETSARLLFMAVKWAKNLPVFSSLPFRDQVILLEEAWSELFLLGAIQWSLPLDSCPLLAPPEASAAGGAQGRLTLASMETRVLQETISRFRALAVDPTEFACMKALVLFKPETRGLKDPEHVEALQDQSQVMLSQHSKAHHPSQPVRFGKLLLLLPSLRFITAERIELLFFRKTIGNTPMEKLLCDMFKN
Chain of Paired box protein Pax-8 (Q06710 whole entry): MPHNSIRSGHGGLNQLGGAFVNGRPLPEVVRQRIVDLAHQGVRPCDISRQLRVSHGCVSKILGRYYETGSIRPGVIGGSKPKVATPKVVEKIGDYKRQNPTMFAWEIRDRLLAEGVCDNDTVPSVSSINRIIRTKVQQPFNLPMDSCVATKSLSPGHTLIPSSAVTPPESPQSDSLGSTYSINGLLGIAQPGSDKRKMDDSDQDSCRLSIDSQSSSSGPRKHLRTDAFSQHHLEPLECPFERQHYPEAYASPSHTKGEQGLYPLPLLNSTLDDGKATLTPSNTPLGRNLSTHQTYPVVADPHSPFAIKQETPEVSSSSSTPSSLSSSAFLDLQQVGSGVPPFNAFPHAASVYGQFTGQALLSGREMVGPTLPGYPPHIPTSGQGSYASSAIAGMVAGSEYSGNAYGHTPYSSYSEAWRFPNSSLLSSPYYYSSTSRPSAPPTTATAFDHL

Structure (SMILES): CCOC(=O)Cc1nnc2c(Nc3ccccc3F)nc3nonc3n12
- EC50 [1]: > 195 µM (not active)
- IC50 [2]: 3.87 µM (active)

Structure (SMILES): O=C(NCc1ccco1)c1ccc(Cn2c(=O)c3sccc3n(Cc3ccc(F)cc3)c2=O)cc1
- CC50 [3]: 44.8 µM (active)
- AC50 [4]: < 260 nM (active)
- AC50 [5]: 349 nM (active)
- AC50 [6]: < 260 nM (active)
- AC50 [7]: 665 nM (active)
- IC50 [8]: 4.76 µM (active)

Structure (SMILES): CCCCCn1c(N)c(-c2nc3ccccc3o2)c2c([N+](=O)[O-])nn(CC)c(=O)c21
- IC50 [9]: 5.88 µM (active)
- IC50 [10]: 8.25 µM (active)

Structure (SMILES): Cc1sc(NC(=O)/C=C/c2ccc3c(c2)OCO3)nc1-c1ccccc1
- IC50 [2]: 7.04 µM (active)

Structure (SMILES): CCOC(=O)CSC1=C(C#N)C(c2ccc(C)o2)CC(=O)N1 (stereo not drawn)
- EC50 [11]: 2.61 µM (active)
- EC50 [12]: 961 nM (active)
- EC50 [13]: 1.31 µM (active)
- EC50 [14]: 1.56 µM (active)
- EC50 [15]: 894 nM (active)
- EC50 [16]: < 100 nM (active)
- EC50 [17]: 14.9 µM (active)
- EC50 [18]: 1.36 µM (active)
- EC50 [19]: 1.04 µM (active)
- EC50 [20]: > 12 µM (inconclusive)
- IC50 [21]: > 67.6 µM (inactive)
- IC50 [22]: > 67.6 µM (inactive)

Structure (SMILES): O=C(/C(=C/Nc1ccc(Br)cc1)C(=O)C(F)(F)F)c1ccco1
- IC50 [23]: 27.2 µM (active)
- IC50 [21]: > 67.5 µM (inactive)
- IC50 [22]: > 67.5 µM (inactive)

Structure (SMILES): COC(=O)C[C@@H]1CC[C@@H]2[C@H](COc3ccc(NC(=O)Nc4cccc(F)c4)cc3C(=O)N2C)O1
- AC50 [24]: 40.1 µM (active)

Structure (SMILES): COCC(=O)N(C)C[C@H]1[C@H](c2ccccc2)[C@@H](CO)N1C(=O)NC(C)C
- AC50 [24]: 50.3 µM (active)

Structure (SMILES): CCCCCNC(=O)C(C1CC1)n1c(=O)c(-c2ccco2)nc2ccccc21 (stereo not drawn)
- IC50 [25]: 6.11 µM (active)

Structure (SMILES): C=C1CCN([C@@H](Cc2ccccc2)C(=O)Nc2ccc(OC)cc2)S(=O)(=O)c2ccccc21
- AC50 [4]: 923 nM (active)
- AC50 [5]: 848 nM (active)
- AC50 [6]: 1310 nM (active)
- AC50 [7]: 2030 nM (active)

Structure (SMILES): CN1CCc2c(sc(/N=C/c3c[nH]c4ccccc34)c2C(N)=O)C1
- IC50 [9]: > 80 µM (inactive)
- IC50 [10]: 57.2 µM (inactive)

Structure (SMILES): O=C/C(=N\Nc1ccc(Cl)cc1)C(=O)c1ccncc1
- EC50 [26]: 116 µM (active)
- EC50 [27]: 42.2 µM (active)
- AC50 [28]: 5.23 µM (active)
- IC50 [25]: 28.9 µM (inactive)

Structure (SMILES): COc1ccc2cc(CNCCOCCOCCNCc3ccc4cc(OC)ccc4c3)ccc2c1
- CC50 [29]: 9.1 µM (active)
- AC50 [30]: 2.45 µM (active)
- AC50 [31]: 19.1 µM (active)
- AC50 [32]: 20.3 µM (active)
